This note sets out measurements from patent US9783592B2 (priority 2010, dated 2017).

The target in data set [1] is T1, ERα (Homo sapiens, UniProt P03372). Conditions: read-out: ERα IC50; purified ERα, [I125]-estradiol.
Data set [2] can be described thus: Example 20: DIO mice, daily s.c. dosing. It is filed as in vivo.
Data set [3] concerns the target T1, ERα. It counts as cell-based. Details: T47D cells transfected with the luciferase gene fused to the estrogen response element (ERE); endogenous in cells; host or cells: T47D. As to conditions: T47D cells, ERE-luciferase.
Data set [4] deals with T2, GLP-1 receptor (Homo sapiens, UniProt P43220).
T2 construct: expressed in transfected cells; host or cells: HEK293
T2 sequence (P43220 24-463, species assumed): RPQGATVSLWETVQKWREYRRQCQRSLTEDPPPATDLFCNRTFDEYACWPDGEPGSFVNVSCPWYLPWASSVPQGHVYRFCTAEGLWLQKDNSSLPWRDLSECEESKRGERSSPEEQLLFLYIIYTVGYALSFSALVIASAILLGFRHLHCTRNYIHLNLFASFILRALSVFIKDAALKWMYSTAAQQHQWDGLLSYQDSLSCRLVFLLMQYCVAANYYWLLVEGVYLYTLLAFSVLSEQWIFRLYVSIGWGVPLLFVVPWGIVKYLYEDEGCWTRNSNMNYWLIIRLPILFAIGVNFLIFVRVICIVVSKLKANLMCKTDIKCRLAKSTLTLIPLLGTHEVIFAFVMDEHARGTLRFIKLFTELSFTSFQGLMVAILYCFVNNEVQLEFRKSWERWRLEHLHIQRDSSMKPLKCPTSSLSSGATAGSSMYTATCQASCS
Put plainly: GLP-1 binding, [I125]-GLP-1 SPA with receptor membrane extracts. Conditions: read-out: GLP-1 IC50, Example 22, GLP-1 receptor cell membrane extracts.

The target in data set [5] is T2, GLP-1 receptor. The experiment in a line: GLP-1 activity (cAMP induction), CRE-luciferase reporter assay in HEK293 cells. It counts as cell-based. Conditions: read-out: GLP-1 EC50; Example 22; HEK293 cells co-transfected with GLP-1 receptor and CRE-luciferase. A general note: Reporter assays use an easily measured gene product as a stand-in for the process of interest.

Data set [6] concerns the target T2, GLP-1 receptor. Put plainly: GLP-1 receptor activation, cAMP induction in HEK293 cells over-expressing the receptor (luciferase reporter). It counts as cell-based.
For another data set, the target named is T3, glucagon receptor (Homo sapiens, UniProt P47871).
T3 construct: expressed in transfected cells; host or cells: HEK293
T3 sequence (P47871 26-477): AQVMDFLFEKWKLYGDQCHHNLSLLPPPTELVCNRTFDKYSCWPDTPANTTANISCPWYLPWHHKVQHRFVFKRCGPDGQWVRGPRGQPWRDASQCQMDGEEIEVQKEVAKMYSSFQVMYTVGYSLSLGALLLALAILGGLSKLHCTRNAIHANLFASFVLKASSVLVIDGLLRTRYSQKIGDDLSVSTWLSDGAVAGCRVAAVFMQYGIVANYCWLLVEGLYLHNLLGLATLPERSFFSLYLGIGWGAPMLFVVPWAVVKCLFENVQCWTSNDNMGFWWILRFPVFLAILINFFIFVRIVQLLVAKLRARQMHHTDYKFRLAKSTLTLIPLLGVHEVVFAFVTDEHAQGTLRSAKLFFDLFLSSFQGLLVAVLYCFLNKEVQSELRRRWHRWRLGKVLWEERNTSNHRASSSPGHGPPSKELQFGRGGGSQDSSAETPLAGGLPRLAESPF
The experiment in a line: glucagon antagonist activity, reduction of glucagon-induced cAMP production in an in vitro assay. It counts as cell-based. Conditions: PLA at position 6 versus positions 4 and 5. Background: Cyclic AMP is a second messenger, typically raised through Gs and lowered through Gi signalling.

A short description of data set [7]: Stability analysis in human plasma (estrogen release). It counts as in vitro ADME. Conditions: 1 mg/mL, 100% human plasma, pH 7.4, 37° C.
The nature of data set [8]: solubility in aqueous solution. It is filed as physicochemical.

T1 sequence (P03372 whole entry): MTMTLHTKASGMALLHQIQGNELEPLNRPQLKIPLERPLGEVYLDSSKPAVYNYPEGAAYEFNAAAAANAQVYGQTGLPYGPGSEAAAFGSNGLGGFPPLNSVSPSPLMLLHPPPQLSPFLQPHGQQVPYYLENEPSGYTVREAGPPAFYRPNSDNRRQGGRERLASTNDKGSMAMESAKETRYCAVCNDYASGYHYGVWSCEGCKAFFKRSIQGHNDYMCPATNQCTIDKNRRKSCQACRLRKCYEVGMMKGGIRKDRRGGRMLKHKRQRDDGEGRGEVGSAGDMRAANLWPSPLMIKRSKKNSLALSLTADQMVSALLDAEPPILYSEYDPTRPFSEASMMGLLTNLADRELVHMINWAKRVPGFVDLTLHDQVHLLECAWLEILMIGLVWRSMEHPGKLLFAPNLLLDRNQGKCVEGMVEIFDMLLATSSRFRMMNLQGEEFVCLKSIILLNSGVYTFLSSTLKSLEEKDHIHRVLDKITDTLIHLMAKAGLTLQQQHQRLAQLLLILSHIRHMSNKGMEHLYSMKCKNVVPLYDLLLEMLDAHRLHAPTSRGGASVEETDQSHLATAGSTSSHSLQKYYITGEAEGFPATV

As for `CC[C@H](C)[C@H](NC(=O)[C@H](Cc1ccccc1)NC(=O)[C@H](CCC(=O)O)NC(=O)[C@H](CCCCN)NC(=O)[C@H](C)NC(=O)[C@H](C)NC(=O)[C@H](CCC(N)=O)NC(=O)[C@H](CCC(=O)O)NC(=O)[C@H](CCC(=O)O)NC(=O)[C@H](CC(C)C)NC(=O)[C@H](Cc1ccc(O)cc1)NC(=O)[C@H](CO)NC(=O)[C@H](CO)NC(=O)[C@@H](NC(=O)[C@H](CC(=O)O)NC(=O)[C@H](CO)NC(=O)[C@@H](NC(=O)[C@H](Cc1ccccc1)NC(=O)[C@@H](NC(=O)CNC(=O)[C@H](CCC(=O)O)NC(=O)C(C)(C)NC(=O)[C@@H](N)Cc1c[nH]cn1)[C@@H](C)O)[C@@H](C)O)C(C)C)C(=O)N[C@@H](C)C(=O)N[C@@H](Cc1c[nH]c2ccccc12)C(=O)N[C@@H](CC(C)C)C(=O)N[C@H](C(=O)N[C@@H](CCCCN)C(=O)NCC(=O)NCC(=O)N1CCC[C@H]1C(=O)N[C@@H](CO)C(=O)N[C@@H](CO)C(=O)NCC(=O)N[C@@H](C)C(=O)N1CCC[C@H]1C(=O)N1CCC[C@H]1C(=O)N1CCC[C@H]1C(=O)N[C@@H](CO)C(=O)N[C@@H](CCCCNC(=O)CCC(=O)Oc1ccc2c(c1)CC[C@@H]1[C@@H]2CC[C@]2(C)[C@@H](OC(C)=O)CC[C@@H]12)C(N)=O)C(C)C` [GLP-1/Estrogen(3-ester)], the IC50 – broadly, the point on the concentration scale where inhibition reaches its midpoint – on ERα [1] was 198 ± 16.8 nM; on GLP-1 receptor [4], 0.627 ± 0.046 nM. For the same molecule, the fat mass entry in data set [2] (FIG. 9b) was “least amount of fat mass”. The “change in body weight” value in [2] (s.c. once per day, after 7 days) is “greatest decrease in body weight”. The values for the EC50 at ERα [3] and at GLP-1 receptor [5] were 0.013 ± 0.001 nM and 0.014 ± 0.001 nM, respectively.

With “SEQ ID NO: 22: glucagon analog in which the native glutamine at position 3 is substituted with glutamic acid”, in the data set with GLP-1 receptor [6], the “selectivity for the GLP-1 receptor over the glucagon receptor” value is given as “approximately a tenfold selectivity for the GLP-1 receptor”.

Turning to “PLA6 analog: glucagon peptide, first 5 amino acids removed from the N-terminus, remaining N-terminal amino group replaced with a hydroxyl group”, the glucagon antagonist potency result in the data set with glucagon receptor is listed as “appreciably more potent antagonist than glucagon analogs having a slightly extended N-terminus”.

As for `CC[C@H](C)[C@H](NC(=O)[C@H](Cc1ccccc1)NC(=O)[C@H](CCC(=O)O)NC(=O)[C@H](CCCCN)NC(=O)[C@H](C)NC(=O)[C@H](C)NC(=O)[C@H](CCC(N)=O)NC(=O)[C@H](CCC(=O)O)NC(=O)[C@H](CCC(=O)O)NC(=O)[C@H](CC(C)C)NC(=O)[C@H](Cc1ccc(O)cc1)NC(=O)[C@H](CO)NC(=O)[C@H](CO)NC(=O)[C@@H](NC(=O)[C@H](CC(=O)O)NC(=O)[C@H](CO)NC(=O)[C@@H](NC(=O)[C@H](Cc1ccccc1)NC(=O)[C@@H](NC(=O)CNC(=O)[C@H](CCC(=O)O)NC(=O)C(C)(C)NC(=O)[C@@H](N)Cc1c[nH]cn1)[C@@H](C)O)[C@@H](C)O)C(C)C)C(=O)N[C@@H](C)C(=O)N[C@@H](Cc1c[nH]c2ccccc12)C(=O)N[C@@H](CC(C)C)C(=O)N[C@H](C(=O)N[C@@H](CCCCN)C(=O)NCC(=O)NCC(=O)N1CCC[C@H]1C(=O)N[C@@H](CO)C(=O)N[C@@H](CO)C(=O)NCC(=O)N[C@@H](C)C(=O)N1CCC[C@H]1C(=O)N1CCC[C@H]1C(=O)N1CCC[C@H]1C(=O)N[C@@H](CO)C(=O)N[C@@H](CCCCNC(=O)COc1ccc2c(c1)CC[C@@H]1[C@@H]2CC[C@]2(C)[C@@H](O)CC[C@@H]12)C(N)=O)C(C)C` [GLP-1/Estrogen(3-ether)], the “estrogen release in plasma” value in [7] is recorded as “no estrogen release over 72 hours”.

In the case of `CSCC[C@H](NC(=O)[C@H](CC(C)C)NC(=O)[C@H](Cc1c[nH]c2ccccc12)NC(=O)[C@H](CCC(N)=O)NC(=O)[C@@H](NC(=O)[C@H](Cc1ccccc1)NC(=O)[C@H](CC(=O)O)NC(=O)[C@H](CCC(N)=O)NC(=O)[C@H](C)NC(=O)[C@H](CCCN=C(N)N)NC(=O)[C@H](CCCN=C(N)N)NC(=O)[C@H](CO)NC(=O)[C@H](CC(=O)O)NC(=O)[C@H](CC(C)C)NC(=O)[C@H](Cc1ccc(O)cc1)NC(=O)[C@H](CCCCN)NC(=O)[C@H](CO)NC(=O)[C@H](Cc1ccc(O)cc1)NC(=O)[C@H](CC(=O)O)NC(=O)[C@H](CO)NC(=O)[C@@H](NC(=O)[C@H](Cc1ccccc1)NC(=O)[C@@H](NC(=O)CNC(=O)[C@H](CCC(N)=O)NC(=O)[C@H](CO)NC(=O)[C@@H](N)Cc1c[nH]cn1)[C@@H](C)O)[C@@H](C)O)C(C)C)C(=O)N[C@@H](CC(N)=O)C(=O)N[C@H](C(=O)O)[C@@H](C)O` [Glucagon], the “solubility in aqueous solution” value in data set [8] is listed as “poor solubility in aqueous solution, particularly at physiological pH”.
